Results as given in the supplement of paper PMC10307832.

Key:
Test in all cases: relative viability (nuclei count vs DMSO), 5 days (fraction); higher = more cells survive
Salubrinal + Trametinib = compound: O=C(/C=C/c1ccccc1)NC(NC(=S)Nc1cccc2cccnc12)C(Cl)(Cl)Cl [Salubrinal] + CC(=O)Nc1cccc(-n2c(=O)n(C3CC3)c(=O)c3c(Nc4ccc(I)cc4F)n(C)c(=O)c(C)c32)c1 [Trametinib] (partner 0.02 µM)
In short: (§1)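 Cells from lung cancer lines were seeded into 1536-well plates and, one day later, dosed by pin tool. Treatments were either a single drug or a fixed dose of an anchor drug with five library-drug doses (not always all listed) in √10 steps. After 5 days, nuclei were stained in a one-step fixation (final 0.05% Triton X-100, 1% formaldehyde, 1 ug/ml Hoechst) and counted on 4× images, and relative viability is the treated-to-vehicle nuclei ratio, as the median of duplicate plates.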

Salubrinal + Pictilisib = compound: O=C(/C=C/c1ccccc1)NC(NC(=S)Nc1cccc2cccnc12)C(Cl)(Cl)Cl [Salubrinal] + CS(=O)(=O)N1CCN(Cc2cc3nc(-c4cccc5[nH]ncc45)nc(N4CCOCC4)c3s2)CC1 [Pictilisib] (partner 1 µM)
In short: as §1

Salubrinal + Vorinostat = compound: O=C(/C=C/c1ccccc1)NC(NC(=S)Nc1cccc2cccnc12)C(Cl)(Cl)Cl [Salubrinal] + O=C(CCCCCCC(=O)Nc1ccccc1)NO [Vorinostat] (partner 1 µM)
In short: as §1

[1] = compound: Cc1ccc2nc(NCCN)c3ncc(C)n3c2c1 + N=C(N)NC(=N)NCCc1ccccc1 [Phenformin] (partner 250 µM)
In short: as §1

Row | Cell Line | relative viability (Salubrinal + Trametinib; first compound 0.08 µM) | relative viability (Salubrinal + Trametinib; first compound 0.253 µM) | relative viability (Salubrinal + Trametinib; first compound 0.8 µM) | relative viability (Salubrinal + Trametinib; first compound 2.53 µM) | relative viability (Salubrinal + Trametinib; first compound 8 µM) | relative viability (Salubrinal + Pictilisib; first compound 0.08 µM) | relative viability (Salubrinal + Pictilisib; first compound 0.253 µM) | relative viability (Salubrinal + Pictilisib; first compound 0.8 µM) | relative viability (Salubrinal + Pictilisib; first compound 2.53 µM) | relative viability (Salubrinal + Pictilisib; first compound 8 µM) | relative viability (Salubrinal + Vorinostat; first compound 0.08 µM) | relative viability (Salubrinal + Vorinostat; first compound 0.253 µM) | relative viability (Salubrinal + Vorinostat; first compound 0.8 µM) | relative viability (Salubrinal + Vorinostat; first compound 2.53 µM) | relative viability (Salubrinal + Vorinostat; first compound 8 µM) | relative viability ([1]; first compound 0.04 µM) | relative viability ([1]; first compound 0.1265 µM) | relative viability ([1]; first compound 0.4 µM) | relative viability ([1]; first compound 1.265 µM) | relative viability ([1]; first compound 4 µM)
1 | NCI-H647 | 0.619 | 0.431 | 0.524 | 0.502 | 0.433 | 0.298 | 0.421 | 0.421 | 0.501 | 0.427 | 0.546 | 0.547 | 0.773 | 0.504 | 0.683 | 0.758 | 0.533 | 0.494 | 0.539 | 0.476
2 | HCC-78 | 0.869 | 0.692 | 0.652 | 0.791 | 0.686 | 0.195 | 0.0891 | 0.312 | 0.232 | 0.229 | 0.473 | 0.446 | 0.472 | 0.451 | 0.441 | 0.81 | 0.694 | 0.71 | 0.697 | 0.601
3 | NCI-H1755 | 0.847 | 0.803 | 0.829 | 0.765 | 0.716 | 0.564 | 0.417 | 0.535 | 0.431 | 0.401 | 0.815 | 0.831 | 0.973 | 0.911 | 0.745 | 0.661 | 0.665 | 0.581 | 0.625 | 0.583
4 | NCI-H3122 | 0.259 | 0.239 | 0.282 | 0.226 | 0.226 | 0.565 | 0.633 | 0.657 | 0.694 | 0.663 | 1.16 | 1 | 0.989 | 1.05 | 1.09 | 0.411 | 0.379 | 0.399 | 0.36 | 0.288
5 | NCI-H358 | 0.145 | 0.139 | 0.135 | 0.143 | 0.136 | 0.328 | 0.455 | 0.356 | 0.309 | 0.373 | 0.804 | 0.659 | 0.757 | 0.641 | 0.661 | 0.391 | 0.313 | 0.323 | 0.359 | 0.402
6 | PC-14 | 0.695 | 0.753 | 0.736 | 0.588 | 0.629 | 0.792 | 0.597 | 0.668 | 0.702 | 0.626 | 0.719 | 0.585 | 0.672 | 0.645 | 0.5 | 0.535 | 0.69 | 0.431 | 0.607 | 0.254
7 | SK-MES-1 | 0.634 | 0.526 | 0.512 | 0.561 | 0.525 | 0.435 | 0.339 | 0.356 | 0.305 | 0.335 | 1.35 | 1 | 1.28 | 1.1 | 0.936 | 0.688 | 0.624 | 0.69 | 0.65 | 0.605
8 | NCI-H2347 | 0.279 | 0.258 | 0.395 | 0.262 | 0.294 | 0.805 | 0.517 | 0.905 | 0.678 | 0.434 | 0.558 | 0.514 | 0.608 | 0.686 | 0.639 | 0.521 | 0.55 | 0.513 | 0.345 | 0.417
9 | NCI-H2228 | 0.457 |  | 0.745 | 0.385 | 0.622 | 0.472 | 0.356 | 0.31 | 0.543 | 0.321 | 0.99 |  | 0.652 | 0.659 | 0.642 | 0.29 | 0.525 | 0.452 | 0.284 | 0.244
10 | EKVX | 0.332 | 0.47 | 0.565 | 0.303 | 0.358 | 0.508 | 0.494 | 0.525 | 0.461 | 0.482 | 0.769 | 0.606 | 0.863 | 0.668 | 0.665 | 0.25 | 0.236 | 0.241 | 0.239 | 0.248
11 | HOP-62 | 0.438 | 0.369 | 0.382 | 0.343 | 0.338 | 0.509 | 0.468 | 0.681 | 0.505 | 0.691 | 0.657 | 0.498 | 0.627 | 0.563 | 0.616 | 0.676 | 0.643 | 0.575 | 0.657 | 0.653
12 | NCI-H2126 | 0.592 | 0.579 | 0.544 | 0.576 | 0.513 | 0.423 | 0.479 | 0.515 | 0.483 | 0.481 | 0.87 | 0.72 | 0.888 | 0.763 | 0.719 | 0.528 | 0.544 | 0.516 | 0.535 | 0.506
13 | SW 1573 | 0.789 | 0.615 | 0.588 | 0.485 | 0.469 | 0.539 | 0.406 | 0.537 | 0.465 | 0.471 | 0.852 | 0.686 | 0.778 | 0.55 | 0.62 | 0.371 | 0.368 | 0.395 | 0.424 | 0.231
